In PMC3161034 (BMC Cancer, 2011):
Marks after values point to notes of the source that are not given here.

What was measured:
[1] = test system: patients with solid tumors; test: Adverse events graded by CTCAE version 3.0, relatedness by investigator; assay type: in vivo, human
Method: Cohort enrollment could be expanded to ensure that at least 6 evaluable patients were enrolled or in the event of unresolved safety, pharmacokinetic, or other concerns. The overall sample size could be further increased if additional dose cohorts were considered justified based on the results from the dose-escalation portion of the study. For continuous endpoints, the mean, standard error or standard deviation (SD); median; 25th and 75th percentiles; and minimum and maximum were calculated. For discrete data, the frequency and percent distributions were calculated. No formal comparisons between cohorts were performed. The data were analyzed using SAS software version 8.2 (SAS Institute, Cary, NC). […] The safety analysis set included all patients who received at least 1 dose of study therapy.

[2] = test system: patients with advanced solid tumors; parameters: method as in PMID 17557949; conditions: monotherapy; cited from earlier work
[3] = test system: patients with solid tumours; parameters: method as in PMID 18971935; conditions: in combination with gemcitabine; cited from earlier work
[4] = test system: CYP1A2; conditions: cited from earlier work
[5] = test system: cytochrome P450 (CYP) 3A4; conditions: cited from earlier work
[6] = motesanib 50 mg QD + gemcitabine + erlotinib 100 mg QD, n = 7
[7] = motesanib 75 mg BID + gemcitabine + erlotinib 100 mg QD, n = 9
[8] = motesanib 100 mg QD + erlotinib 150 mg QD, n = 7
[9] = motesanib 100 mg QD + gemcitabine + erlotinib 100 mg QD, n = 8

## CC1(C)CNc2cc(NC(=O)c3cccnc3NCc3ccncc3)ccc21 [motesanib]
[1]; all motesanib cohorts
  Patients with grade ≥ 3 motesanib-related adverse events: Twenty-three
[1]; human, in vivo
  Grade 5 motesanib-related adverse events: No grade 5 motesanib-related adverse events occurred
  Motesanib-related diarrhea: 19 n
  Motesanib-related fatigue: 12 n
  Motesanib-related nausea: 18 n
  Motesanib-related vomiting: 13 n
  Patients discontinuing treatment with the drug because of adverse events: 9 n
  Serious motesanib-related deep vein thrombosis: 2 n
  Serious motesanib-related diarrhea: 2 n
  Serious motesanib-related nausea: 5 n
  Serious motesanib-related pulmonary embolism: 2 n
  Serious motesanib-related tumor necrosis: 2 n
  Serious motesanib-related vomiting: 5 n
[1]; [6]
  Abnormal liver function test, grade 3 (motesanib-related): 0 n
  Adverse events of grade 3, n (motesanib-related): 0 n
  Adverse events of grade 4, n (Pulmonary): 1 n
  Any adverse event, n (motesanib-related): 3 n
  Cardiac toxicity (all grade 3): 0 n
  Deep vein thrombosis, grade 3 (motesanib-related): 0 n
  Diarrhea, grade 3 (motesanib-related): 0 n
  Fatigue, grade 3 (motesanib-related): 0 n
  Febrile neutropenia, grade 4 (motesanib-related): 1 n
  Gallbladder toxicity: 0 n
  Gallbladder toxicity, Grade 3: 0 n
  Hemorrhagic events: 0 n
  Hemorrhagic events, Grade 3: 0 n
  Hypertension, highest (worst) grade: Grade 3: 0 n
  Nausea, grade 3 (motesanib-related): 0 n
  Neutropenia, grade 3 (motesanib-related): 0 n
  Neutropenia, grade 4 (motesanib-related): 0 n
  Pulmonary embolism, grade 4 (motesanib-related): 0 n
  Thrombophlebitis (all grade 3): 0 n
  Tumor necrosis, grade 3 (motesanib-related): 0 n
  Vomiting, grade 3 (motesanib-related): 0 n
[1]; [7]
  Abnormal liver function test, grade 3 (motesanib-related): 0 n
  Adverse events of grade 3, n (motesanib-related): 3 n
  Adverse events of grade 4, n (Pulmonary): 1 n
  Any adverse event, n (motesanib-related): 7 n
  Cardiac toxicity (all grade 3): 0 n
  Deep vein thrombosis, grade 3 (motesanib-related): 0 n
  Diarrhea, grade 3 (motesanib-related): 0 n
  Fatigue, grade 3 (motesanib-related): 0 n
  Febrile neutropenia, grade 4 (motesanib-related): 0 n
  Gallbladder toxicity: 0 n
  Gallbladder toxicity, Grade 3: 0 n
  Hemorrhagic events: 0 n
  Hemorrhagic events, Grade 3: 0 n
  Hypertension, highest (worst) grade: Grade 3: 0 n
  Nausea, grade 3 (motesanib-related): 1 n
  Neutropenia, grade 3 (motesanib-related): 0 n
  Neutropenia, grade 4 (motesanib-related): 1 n
  Pulmonary embolism, grade 4 (motesanib-related): 0 n
  Thrombophlebitis (all grade 3): 0 n
  Tumor necrosis, grade 3 (motesanib-related): 1 n
  Vomiting, grade 3 (motesanib-related): 0 n
[1]; [8]
  Abnormal liver function test, grade 3 (motesanib-related): 0 n
  Adverse events of grade 3, n (motesanib-related): 3 n
  Adverse events of grade 4, n (Pulmonary): 0 n
  Any adverse event, n (motesanib-related): 7 n
  Cardiac toxicity (all grade 3): 0 n
  Deep vein thrombosis, grade 3 (motesanib-related): 0 n
  Diarrhea, grade 3 (motesanib-related): 2 n
  Fatigue, grade 3 (motesanib-related): 0 n
  Febrile neutropenia, grade 4 (motesanib-related): 0 n
  Gallbladder toxicity, Grade 3: 0 n
  Hemorrhagic events, Grade 3: 0 n
  Hypertension, highest (worst) grade: Grade 3: 0 n
  Nausea, grade 3 (motesanib-related): 0 n
  Neutropenia, grade 3 (motesanib-related): 1 n
  Neutropenia, grade 4 (motesanib-related): 0 n
  Pulmonary embolism, grade 4 (motesanib-related): 0 n
  Thrombophlebitis (all grade 3): 0 n
  Tumor necrosis, grade 3 (motesanib-related): 1 n
  Vomiting, grade 3 (motesanib-related): 0 n
[1]; motesanib 100 mg QD + erlotinib 150 mg QD, n = 7, epistaxis (grade 1)
  Hemorrhagic events: 1^e n
[1]; motesanib 100 mg QD + erlotinib 150 mg QD, n = 7, gallbladder enlargement (grade 2)
  Gallbladder toxicity: 1^c n
[1]; [9]
  Abnormal liver function test, grade 3 (motesanib-related): 1 n
  Adverse events of grade 3, n (motesanib-related): 3 n
  Adverse events of grade 4, n (Pulmonary): 0 n
  Any adverse event, n (motesanib-related): 8 n
  Deep vein thrombosis, grade 3 (motesanib-related): 0 n
  Diarrhea, grade 3 (motesanib-related): 1 n
  Fatigue, grade 3 (motesanib-related): 1 n
  Febrile neutropenia, grade 4 (motesanib-related): 0 n
  Gallbladder toxicity: 0 n
  Gallbladder toxicity, Grade 3: 0 n
  Hemorrhagic events: 0 n
  Hemorrhagic events, Grade 3: 0 n
  Hypertension, highest (worst) grade: Grade 3: 0 n
  Nausea, grade 3 (motesanib-related): 0 n
  Neutropenia, grade 3 (motesanib-related): 1 n
  Neutropenia, grade 4 (motesanib-related): 0 n
  Pulmonary embolism, grade 4 (motesanib-related): 0 n
  Thrombophlebitis (all grade 3): 0 n
  Tumor necrosis, grade 3 (motesanib-related): 0 n
  Vomiting, grade 3 (motesanib-related): 1 n
[1]; motesanib 100 mg QD + gemcitabine + erlotinib 100 mg QD, n = 8, congestive heart failure and pulmonary edema
  Cardiac toxicity (all grade 3): 1^f n
[2]
  Maximum tolerated dose (MTD): 125 mg QD
[3]
  Target dose: 125 mg QD
[4]
  Effect on CYP1A2: inducer
[5]
  Effect on CYP3A4: inhibitor
